Data published in PubChem BioAssay AID248 (DTP/NCI, 2004).
Toxic doses and inconclusive results are not listed. Cut-off read from the data, not from the text of the source: active = T/C of 150% or more; inactive = T/C below 125%.

System: L1210 leukemia ip in BDF1 mice, survival T/C
Assay: NCI In Vivo Anticancer Drug Screen. Data for tumor model L1210 Leukemia (intraperitoneal) in B6D2F1 (BDF1) mice
Conditions: endpoint: mean survival time, higher = longer survival
How it was run: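 Survival endpoint. Drug-treated group vs vehicle group, expressed as T divided by C. Tumor passaged by transplantation.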

[1] = dose: 100.0 mg/kg/injection, schedule: Q01DX001 (ip), vehicle: saline
[2] = dose: 200.0 mg/kg/injection, schedule: Q01DX001 (ip), vehicle: saline
[3] = dose: 400.0 mg/kg/injection, schedule: Q01DX001 (ip), vehicle: saline

Measured: T/C

CC(/C(=N\N=C(N)N)c1ccccc1)N(C)C (stereo not given)
inactive: dose: 15.0 mg/kg/injection, schedule: Q01DX Z (ip), vehicle: methylcellulose (MC) 94 % of control | dose: 30.0 mg/kg/injection, schedule: Q01DX Z (ip), vehicle: methylcellulose (MC) 108 % of control | dose: 50.0 mg/kg/injection, schedule: Q01DX Z (oral), vehicle: methylcellulose (MC) 100 % of control | dose: 60.0 mg/kg/injection, schedule: Q01DX Z (ip), vehicle: methylcellulose (MC) 95 % of control | dose: 100.0 mg/kg/injection, schedule: Q01DX Z (oral), vehicle: methylcellulose (MC) 86 % of control | dose: 120.0 mg/kg/injection, schedule: Q01DX Z (ip), vehicle: methylcellulose (MC) 88 % of control

FC(F)/C=C\c1ccccc1
inactive: dose: 75.0 mg/kg/injection, schedule: Q01DX001 (ip), vehicle: other 103 % of control | dose: 150.0 mg/kg/injection, schedule: Q01DX001 (ip), vehicle: other 105 % of control | dose: 300.0 mg/kg/injection, schedule: Q01DX001 (ip), vehicle: other 111 % of control

CCCCSc1nc(SCCCC)nc(SCCCC)n1
inactive: dose: 100.0 mg/kg/injection, schedule: Q04DX002 (ip), vehicle: saline with Tween-80 96 % of control | dose: 200.0 mg/kg/injection, schedule: Q04DX002 (ip), vehicle: saline with Tween-80 111 % of control | dose: 400.0 mg/kg/injection, schedule: Q04DX002 (ip), vehicle: saline with Tween-80 89 % of control

CC(=O)Oc1ccc(OC(C)=O)c([N+](=O)[O-])c1
inactive: [1] 103 % of control | [2] 102 % of control | [3] 103 % of control

CC(C)N(C(=O)Nc1ccc(Cl)cc1)C1CCCCC1
inactive: dose: 87.5 mg/kg/injection, schedule: Q04DX003 (ip), vehicle: carboxymethylcellulose (CMC) 101 % of control | dose: 175.0 mg/kg/injection, schedule: Q04DX003 (ip), vehicle: carboxymethylcellulose (CMC) 96 % of control | dose: 350.0 mg/kg/injection, schedule: Q04DX003 (ip), vehicle: carboxymethylcellulose (CMC) 95 % of control

C(=N/N(Cc1ccccc1)Cc1ccccc1)/c1ccccc1
inactive: [1] 94 % of control | [2] 103 % of control | [3] 101 % of control

COC(=O)c1cc(Cl)cc(C(=O)OC)c1
inactive: dose: 100.0 mg/kg/injection, schedule: Q04DX003 (ip), vehicle: saline with Tween-80 96 % of control | dose: 200.0 mg/kg/injection, schedule: Q04DX003 (ip), vehicle: saline with Tween-80 93 % of control | dose: 400.0 mg/kg/injection, schedule: Q04DX003 (ip), vehicle: saline with Tween-80 93 % of control

CC(C)(C)OC(=O)N1Cc2cc3ccccc3nc2C1
inactive: dose: 50.0 mg/kg/injection, schedule: Q01DX009 (ip), vehicle: saline 98 % of control | dose: 100.0 mg/kg/injection, schedule: Q01DX009 (ip), vehicle: saline 94 % of control | dose: 100.0 mg/kg/injection, schedule: Q04DX003 (ip), vehicle: saline 96 % of control | dose: 200.0 mg/kg/injection, schedule: Q04DX003 (ip), vehicle: saline 100 % of control

CC#CCC(N)C(=O)O (stereo not given)
inactive: dose: 75.0 mg/kg/injection, schedule: Q01DX001 (ip), vehicle: carboxymethylcellulose (CMC) 109 % of control | dose: 80.0 mg/kg/injection, schedule: Q01DX009 (ip), vehicle: saline 105 % of control | dose: 150.0 mg/kg/injection, schedule: Q01DX001 (ip), vehicle: carboxymethylcellulose (CMC) 103 % of control | dose: 160.0 mg/kg/injection, schedule: Q01DX009 (ip), vehicle: saline 106 % of control | dose: 300.0 mg/kg/injection, schedule: Q01DX001 (ip), vehicle: carboxymethylcellulose (CMC) 118 % of control | dose: 320.0 mg/kg/injection, schedule: Q01DX009 (ip), vehicle: saline 94 % of control

Cc1cc(OS(=O)(=O)/C=C/c2ccccc2)c(C(C)C)cc1Cl
inactive: dose: 100.0 mg/kg/injection, schedule: Q01DX001 (ip), vehicle: acetone 93 % of control | dose: 100.0 mg/kg/injection, schedule: Q01DX009 (ip), vehicle: acetone 100 % of control | dose: 200.0 mg/kg/injection, schedule: Q01DX001 (ip), vehicle: acetone 98 % of control | dose: 200.0 mg/kg/injection, schedule: Q01DX009 (ip), vehicle: acetone 98 % of control | dose: 400.0 mg/kg/injection, schedule: Q01DX001 (ip), vehicle: acetone 98 % of control | dose: 400.0 mg/kg/injection, schedule: Q01DX009 (ip), vehicle: acetone 95 % of control

CCCCOP(=O)(OCCCC)[O][Pb]([CH2]C)([CH2]C)[CH2]C
inactive: dose: 3.13 mg/kg/injection, schedule: Q01DX009 (ip), vehicle: saline with Tween-80 101 % of control | dose: 6.25 mg/kg/injection, schedule: Q01DX009 (ip), vehicle: saline with Tween-80 91 % of control

Cc1ccc2c(c1)C(c1ccccc1)(c1ccccc1)N(c1ccccc1)S2(=O)=O
inactive: dose: 100.0 mg/kg/injection, schedule: Q01DX001 (ip), vehicle: carboxymethylcellulose (CMC) 94 % of control | dose: 200.0 mg/kg/injection, schedule: Q01DX001 (ip), vehicle: carboxymethylcellulose (CMC) 91 % of control | dose: 400.0 mg/kg/injection, schedule: Q01DX001 (ip), vehicle: carboxymethylcellulose (CMC) 100 % of control

COc1ccc(C(N)=S)c2ccccc12
inactive: dose: 100.0 mg/kg/injection, schedule: Q01DX001 (ip), vehicle: Klucel (hydroxypropylcellulose) (HPC) 105 % of control | dose: 200.0 mg/kg/injection, schedule: Q01DX001 (ip), vehicle: Klucel (hydroxypropylcellulose) (HPC) 102 % of control | dose: 400.0 mg/kg/injection, schedule: Q01DX001 (ip), vehicle: Klucel (hydroxypropylcellulose) (HPC) 102 % of control

c1ccc(N=P(c2ccccc2)(c2ccccc2)c2ccccc2)cc1
inactive: [1] 94 % of control | [2] 94 % of control

CCCCCCCCCCCCCCCC(=O)O
inactive: dose: 100.0 mg/kg/injection, schedule: Q01DX009 (ip), vehicle: Klucel (hydroxypropylcellulose) (HPC) 100 % of control | dose: 100.0 mg/kg/injection, schedule: Q04DX003 (ip), vehicle: Klucel (hydroxypropylcellulose) (HPC) 98 % of control | dose: 200.0 mg/kg/injection, schedule: Q01DX009 (ip), vehicle: Klucel (hydroxypropylcellulose) (HPC) 92 % of control | dose: 200.0 mg/kg/injection, schedule: Q04DX003 (ip), vehicle: Klucel (hydroxypropylcellulose) (HPC) 98 % of control | dose: 400.0 mg/kg/injection, schedule: Q01DX009 (ip), vehicle: Klucel (hydroxypropylcellulose) (HPC) 97 % of control | dose: 400.0 mg/kg/injection, schedule: Q04DX003 (ip), vehicle: Klucel (hydroxypropylcellulose) (HPC) 97 % of control

CCOc1ccc(/C=N\NC(=O)CCCC(=O)N/N=C/c2ccc(OCC)c(OCC)c2)cc1OCC
inactive: dose: 50.0 mg/kg/injection, schedule: Q01DX001 (ip), vehicle: saline 103 % of control | [1] 95 % of control | [2] 87 % of control

NC(=S)N/N=C(\c1ccccc1)c1ccccn1
inactive: dose: 12.5 mg/kg/injection, schedule: Q01DX009 (ip), vehicle: gum acacia 101 % of control | dose: 25.0 mg/kg/injection, schedule: Q01DX001 (ip), vehicle: gum acacia 100 % of control | dose: 25.0 mg/kg/injection, schedule: Q01DX009 (ip), vehicle: gum acacia 95 % of control | dose: 25.0 mg/kg/injection, schedule: Q04DX003 (ip), vehicle: gum acacia 105 % of control | dose: 50.0 mg/kg/injection, schedule: Q01DX001 (ip), vehicle: gum acacia 106 % of control | dose: 50.0 mg/kg/injection, schedule: Q01DX009 (ip), vehicle: gum acacia 93 % of control | dose: 50.0 mg/kg/injection, schedule: Q04DX003 (ip), vehicle: gum acacia 100 % of control | dose: 100.0 mg/kg/injection, schedule: Q01DX001 (ip), vehicle: gum acacia 95 % of control

Cc1cc(NC(=O)Nc2ccc(Cl)cc2C)no1
inactive: dose: 12.5 mg/kg/injection, schedule: Q01DX009 (ip), vehicle: Klucel (hydroxypropylcellulose) (HPC) 102 % of control | dose: 25.0 mg/kg/injection, schedule: Q01DX009 (ip), vehicle: Klucel (hydroxypropylcellulose) (HPC) 97 % of control | dose: 50.0 mg/kg/injection, schedule: Q01DX009 (ip), vehicle: Klucel (hydroxypropylcellulose) (HPC) 91 % of control
